Structures can show the parent of a compound that is named as a salt. Bounds are passed on as bounds.

A word on the IC50: it is the midpoint of a concentration-inhibition curve.

The assay concerns the target T1, recombinant glucosyltransferase domain of C. difficile Toxin B/TcdB (Clostridioides difficile, UniProt P18177).
T1 construct: 6-His (C); purchased R&D Systems 6246-GT
In words: biochemical.

T1 sequence (P18177 1-543): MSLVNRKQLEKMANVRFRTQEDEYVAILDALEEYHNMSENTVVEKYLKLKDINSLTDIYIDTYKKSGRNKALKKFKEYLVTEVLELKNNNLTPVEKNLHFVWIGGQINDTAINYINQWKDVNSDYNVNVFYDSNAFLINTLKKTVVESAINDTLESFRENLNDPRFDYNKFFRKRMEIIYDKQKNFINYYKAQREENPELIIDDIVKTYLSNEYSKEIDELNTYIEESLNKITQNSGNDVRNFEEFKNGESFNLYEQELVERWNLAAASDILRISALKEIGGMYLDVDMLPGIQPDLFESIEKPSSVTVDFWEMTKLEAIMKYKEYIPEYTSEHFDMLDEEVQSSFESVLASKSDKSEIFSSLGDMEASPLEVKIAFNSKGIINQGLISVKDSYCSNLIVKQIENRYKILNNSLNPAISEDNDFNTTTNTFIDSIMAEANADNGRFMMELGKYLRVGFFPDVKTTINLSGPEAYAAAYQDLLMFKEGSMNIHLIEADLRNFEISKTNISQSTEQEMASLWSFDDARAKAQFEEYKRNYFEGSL

`C[C@@H]1C(=O)Nc2cc(Cl)ccc2C(=O)N1Cc1ccc(C(=O)O)c(Br)c1` [Example 1n]: the IC50 lay within 10000 to 35000 nM.
For the compound `O=C(Nc1ccc(N2CCNCC2)cn1)c1ccc(CN2C(=O)c3ccc(Cl)cc3NC(=O)[C@H]2Cc2ccccn2)cc1` [Example 48a, (R)-4-((8-Chloro-2,5-dioxo-3-(pyridin-2-ylmethyl)-2,3-dihydro-1H-benzo[e][1,4]diazepin-4(5H)-yl)methyl)-N-(5-(piperazin-1-yl)pyridin-2-yl)benzamide hydrochloride], the IC50 was less than 100 nM.
Consider `C[C@@H]1C(=O)Nc2cc(Cl)ccc2C(=O)N1Cc1ccc(C(=O)Nc2nc3ccccc3[nH]2)cc1` [Example 5p, (R)-N-(1H-benzo[d]imidazol-2-yl)-4-((8-chloro-3-methyl-2,5-dioxo-2,3-dihydro-1H-benzo[e][1,4]diazepin-4(5H)-yl)methyl)benzamide], for which the IC50 is 1000 to 10000 nM.
In the case of `O=C(Nc1ccc(C(F)(F)F)cn1)c1ccc(CN2C(=O)c3ccc(Cl)cc3NC(=O)[C@H]2Cc2ccccn2)s1` [Example 4bt, (R)-5-((8-chloro-2,5-dioxo-3-(pyridin-2-ylmethyl)-2,3-dihydro-1H-benzo[e][1,4]diazepin-4(5H)-yl)methyl)-N-(5-(trifluoromethyl)pyridin-2-yl)thiophene-2-carboxamide] it was 1000 to 10000 nM; in that of `C[C@@H]1C(=O)Nc2cc(Cl)ccc2C(=O)N1Cc1ccc(C(=O)Nc2ccccn2)cc1` [Example 4z, (R)-4-((8-chloro-3-methyl-2,5-dioxo-2,3-dihydro-1H-benzo[e][1,4]diazepin-4(5H)-yl)methyl)-N-(pyridin-2-yl)benzamide], less than 100 nM; in that of `O=C(Nc1ccc(CN2C(=O)c3ccc(Cl)cc3NC(=O)[C@H]2Cc2ccccn2)cc1)c1ccc(Cl)cn1` [Example 26i], less than 100 nM.
In the case of `O=C(Nc1ccccn1)c1ccc(CN2C(=O)c3ccc(Cl)cc3NC(=O)C2Cc2cnccn2)cc1` (stereo not shown) [Example 4bu, 4-((8-chloro-2,5-dioxo-3-(pyrazin-2-ylmethyl)-2,3-dihydro-1H-benzo[e][1,4]diazepin-4(5H)-yl)methyl)-N-(pyridin-2-yl)benzamide] it was less than 100 nM; in that of `O=C(Nc1ccc(C(F)(F)F)cn1)c1ccc(CN2C(=O)c3ccc(Cl)cc3NC(=O)[C@H]2Cc2ccccn2)cc1-c1ccc2c(c1)OCO2` [Example 5f, (R)-2-(benzo[d][1,3]dioxol-5-yl)-4-((8-chloro-2,5-dioxo-3-(pyridin-2-ylmethyl)-2,3-dihydro-1H-benzo[e][1,4]diazepin-4(5H)-yl)methyl)-N-(5-(trifluoromethyl)pyridin-2-yl)benzamide], 100 to 999 nM; in that of `Cc1cnc(NC(=O)c2ccc(CN3C(=O)c4ccc(Cl)cc4NC(=O)[C@H]3Cc3ccccn3)cc2C)nc1` [Example 5ag, (R)-4-((8-chloro-2,5-dioxo-3-(pyridin-2-ylmethyl)-2,3-dihydro-1H-benzo[e][1,4]diazepin-4(5H)-yl)methyl)-2-methyl-N-(5-methylpyrimidin-2-yl)benzamide], less than 100 nM.
To `C[C@@H]1C(=O)Nc2cc(Cl)ccc2C(=O)N1Cc1ccc(C(=O)Nc2ncc3ccccc3n2)cc1` [Example 5n, (R)-4-((8-chloro-3-methyl-2,5-dioxo-2,3-dihydro-1H-benzo[e][1,4]diazepin-4(5H)-yl)methyl)-N-(quinazolin-2-yl)benzamide] belongs 100 to 999 nM; to `C[C@@H]1C(=O)Nc2cc(Cl)ccc2C(=O)N1Cc1ccc(C(=O)O)cc1` [Example 3g], 10000 to 35000 nM.
Take `O=C(Nc1ccccn1)c1cccc(S(=O)(=O)N2Cc3ccc(Cl)cc3NC(=O)[C@H]2Cc2ccccn2)c1` [Example 19j, (R)-3-((8-chloro-2-oxo-3-(pyridin-2-ylmethyl)-2,3-dihydro-1H-benzo[e][1,4]diazepin-4(5H)-yl)sulfonyl)-N-(pyridin-2-yl)benzamide]: the IC50 fell in the range of 10000 to 35000 nM.
In the case of `O=C(Nc1ccc(CN2C(=O)c3ccc(Cl)cc3NC(=O)[C@H]2Cc2cccnc2)cc1)c1ccccn1` [Example 26a, (R)—N-(4-((8-Chloro-2,5-dioxo-3-(pyridin-3-ylmethyl)-2,3-dihydro-1H-benzo[e][1,4]diazepin-4(5H)-yl)methyl)phenyl)picolinamide] it was 100 to 999 nM; in that of `O=C(O)c1ccc(CN2C(=O)c3ccc(Cl)cc3NC(=O)[C@H]2Cc2ccccn2)cc1-c1cccc(Cl)c1` [Example 8j, (R)-3′-chloro-5-((8-chloro-2,5-dioxo-3-(pyridin-2-ylmethyl)-2,3-dihydro-1H-benzo[e][1,4]diazepin-4(5H)-yl)methyl)-[1,1′-biphenyl]-2-carboxylic acid], 100 to 999 nM.
Take `O=C(Nc1ccccn1)c1ccc(CN2C(=O)c3ccc(Cl)cc3NC(=O)[C@H]2Cc2ccccn2)cc1F` [Example 6b, (R)-4-((8-chloro-2,5-dioxo-3-(pyridin-2-ylmethyl)-2,3-dihydro-1H-benzo[e][1,4]diazepin-4(5H)-yl)methyl)-2-fluoro-N-(pyridin-2-yl)benzamide]: the IC50 is less than 100 nM.
Turning to `O=C(Nc1ccc(CN2C(=O)c3ccc(Cl)cc3NC(=O)[C@H]2Cc2ccccn2)cc1)c1cccnc1O` [Example 27a, (R)—N-(4-((8-Chloro-2,5-dioxo-3-(pyridin-2-ylmethyl)-2,3-dihydro-1H-benzo[e][1,4]diazepin-4(5H)-yl)methyl)phenyl)-2-hydroxynicotinamide], the IC50 was in the range of 1000 to 10000 nM.
In the case of `N#Cc1cccc(C[C@@H]2C(=O)Nc3cc(Cl)ccc3C(=O)N2Cc2ccc(C(=O)Nc3ccccn3)cc2)c1` [Example 4ak, (R)-4-((8-chloro-3-(3-cyanobenzyl)-2,5-dioxo-2,3-dihydro-1H-benzo[e][1,4]diazepin-4(5H)-yl)methyl)-N-(pyridin-2-yl)benzamide] it was less than 100 nM; in that of `CC(=NO)NC(=O)c1ccc(CN2C(=O)c3ccc(Cl)cc3NC(=O)[C@H]2Cc2cccnc2)cc1` [Example 4bv, (R)-4-((8-chloro-2,5-dioxo-3-(pyridin-3-ylmethyl)-2,3-dihydro-1H-benzo[e][1,4]diazepin-4(5H)-yl)methyl)-N-(1-(hydroxyimino)ethyl)benzamide], 100 to 999 nM; in that of `O=C(CN1CCCC1)Nc1cc(CN2C(=O)c3ccc(Cl)cc3NC(=O)[C@H]2Cc2ccccn2)ccc1C(=O)O` [Example 22n], 100 to 999 nM.
In the case of `O=C(O)c1ccc(CN2C(=O)c3ccc(Cl)cc3NC(=O)[C@H]2Cc2ccc(O)cc2)cc1` [Example 2d] it was 1000 to 10000 nM; in that of `O=C1Nc2cc(Cl)ccc2C(=O)N(C[C@H]2CC[C@H](C(=O)N3CCc4cccnc43)CC2)[C@@H]1Cc1ccccn1` [Example 4cg, (R)-8-chloro-4-(((1r,4R)-4-(2,3-dihydro-1H-pyrrolo[2,3-b]pyridine-1-carbonyl)cyclohexyl)methyl)-3-(pyridin-2-ylmethyl)-3,4-dihydro-1H-benzo[e][1,4]diazepine-2,5-dione], less than 100 nM; in that of `Cc1cc(CN2C(=O)c3ccc(Cl)cc3NC(=O)[C@H]2Cc2ccccn2)cc(C)c1NC(=O)c1ccccn1` [Example 26k], 100 to 999 nM.
`O=C(O)c1ccc(CN2C(=O)c3ccc(Cl)cc3NC(=O)[C@H]2Cc2ccccn2)s1` [Example 1h]: the IC50 lay within 100 to 999 nM.
To `O=C(Nc1cc(CN2C(=O)c3ccc(Cl)cc3NC(=O)[C@H]2Cc2ccccn2)ccc1C(=O)O)c1ccncc1` [Example 22f] belongs 1000 to 10000 nM; to `Cc1cccc(C[C@@H]2C(=O)Nc3cc(Cl)ccc3C(=O)N2Cc2ccc(C(=O)Nc3ccccn3)cc2)c1` [Example 4aj, (R)-4-((8-chloro-3-(3-methylbenzyl)-2,5-dioxo-2,3-dihydro-1H-benzo[e][1,4]diazepin-4(5H)-yl)methyl)-N-(pyridin-2-yl)benzamide], 100 to 999 nM; to `Cc1ccc(NC(=O)c2ccc(CN3C(=O)c4ccc(Cl)cc4NC(=O)[C@H]3CCN3CCC(O)CC3)cc2)nc1` [Example 10c, (R)-4-((8-chloro-3-(2-(4-hydroxypiperidin-1-yl)ethyl)-2,5-dioxo-2,3-dihydro-1H-benzo[e][1,4]diazepin-4(5H)-yl)methyl)-N-(5-methylpyridin-2-yl)benzamide], 1000 to 10000 nM.
Consider `O=C(O)c1ccc(CN2C(=O)c3ccc(F)cc3NC(=O)[C@H]2Cc2cccnc2)cc1` [Example 1b], for which the IC50 fell in the range of 1000 to 10000 nM.
In the case of `Cc1ccc(NC(=O)c2ccc(CN3C(=O)c4ccc(NC(=O)C(C)C)cc4NC(=O)[C@H]3C)cc2)nc1` [Example 18b, (R)-4-((8-isobutyramido-3-methyl-2,5-dioxo-2,3-dihydro-1H-benzo[e][1,4]diazepin-4(5H)-yl)methyl)-N-(5-methylpyridin-2-yl)benzamide] it was 10000 to 35000 nM; in that of `O=C(Nc1ccccn1)c1ccc(CN2C(=O)c3ccc(Cl)cc3NC(=O)[C@H]2Cc2ccccn2)s1` [Example 4bq, (R)-5-((8-chloro-2,5-dioxo-3-(pyridin-2-ylmethyl)-2,3-dihydro-1H-benzo[e][1,4]diazepin-4(5H)-yl)methyl)-N-(pyridin-2-yl)thiophene-2-carboxamide], 100 to 999 nM; in that of `NC(=O)c1ccc(CN2C(=O)c3ccc(Cl)cc3NC(=O)[C@H]2Cc2ccccn2)cc1` [Example 13d], 100 to 999 nM.
In the case of `Cc1ccc(NC(=O)c2ccc(CN3C(=O)c4ccc(Cl)cc4NC(=O)[C@H]3CCO)cc2)nc1` [Example 9a, (R)-4-((8-Chloro-3-(2-hydroxyethyl)-2,5-dioxo-2,3-dihydro-1H-benzo[e][1,4]diazepin-4(5H)-yl)methyl)-N-(5-methylpyridin-2-yl)benzamide] it was 100 to 999 nM.
In the case of `O=C(Nc1cnccn1)c1ccc(CN2C(=O)c3ccc(Cl)cc3NC(=O)[C@H]2Cc2cccnc2)cc1` [Example 5c, (R)-4-((8-chloro-2,5-dioxo-3-(pyridin-3-ylmethyl)-2,3-dihydro-1H-benzo[e][1,4]diazepin-4(5H)-yl)methyl)-N-(pyrazin-2-yl)benzamide] it was less than 100 nM; in that of `O=C1Nc2cc(Cl)ccc2C(=O)N(C[C@H]2CC[C@H](C(=O)O)CC2)[C@@H]1Cc1ccccn1` [Example 1j], 10000 to 35000 nM.
In the case of `O=C(O)c1ccc(CN2C(=O)c3ccc(Cl)cc3NC(=O)[C@H]2Cc2ccccn2)cc1-c1ccc2c(c1)OCO2` [Example 8c, (R)-2-(benzo[d][1,3]dioxol-5-yl)-4-((8-chloro-2,5-dioxo-3-(pyridin-2-ylmethyl)-2,3-dihydro-1H-benzo[e][1,4]diazepin-4(5H)-yl)methyl)benzoic acid], the concentration for half-maximal inhibition (IC50) fell in the range of 100 to 999 nM.

Values taken from patent US10669242B2 (priority 2016, dated 2020).
